Tests used:
LRRK2 G2019S = target: T1, LRRK2 G2019S (Homo sapiens, UniProt Q5S007, G2019S); experiment: LanthaScreen TR-FRET LRRK2 G2019S kinase activity assay; assay type: biochemical; conditions: 250 pM LRRK2 G2019S kinase (residues 970 to 2527), 1.3 mM ATP, 0.4 μM fluorescein-LRRKtide, 2 hours at 30° C.; logarithmic average
T1 construct: purchased Invitrogen (Life Technologies Corporation)
Description: (§1) LRRK2 kinase activity is measured using a LanthaScreen kinase activity assay available from Invitrogen (Life Technologies Corporation). The assay is a homogeneous time resolved-fluorescence resonance energy transfer (TR-FRET) assay that measures phosphorylation of a fluorescein-labelled peptide substrate (fluorescein-LRRKtide, fluorescein-[…]) (SEQ ID NO 1) as a result of LRRK2 kinase activity. The phosphorylated peptide is recognized by a terbium-labelled phospho-specific anti-LRRKtide antibody and, subsequently, the phosphorylated LRRKtide can be quantified by the extent of TR-FRET between the terbium donor and fluorescein acceptor.
(§2) The LRRK2 kinase is obtained from Invitrogen (Life Technologies Corporation) and comprises residues 970 to 2527 of the full length human wild-type LRRK2 kinase or a similar sequence with the G2019S mutation. As discussed above, this mutation increases the kinase activity relative to the wild-type. The kinase reactions are performed in a 20 μL volume in 384-well plates. The kinase reaction buffer consists of 50 mM Tris pH 8.5, 0.01% BRIJ-35, 10 mM MgCl2, 1 mM EGTA, and 2 mM DTT.
(§3) In the assay, 1 nM LRRK2 WT or 250 pM LRRK2 G2019S kinase is incubated with the test compound (typically at 0 to 30 μM) for 30 minutes before the kinase reaction is initiated by addition of 1.3 mM ATP and 0.4 μM fluorescein-LRRKtide. The reaction mixture (20 μl total volume) is incubated for 2 hours at 30° C. before the reaction is terminated by addition of 10 mM EDTA and 1 nM terbium-labelled anti-phospho-LRRKtide antibody (final volume […]). The mixture is further incubated for 30 minutes at RT. TR-FRET is measured by excitation of the terbium-donor with 340 nm light and subsequent (delay time 100 μs) measurement of terbium and fluorescein emission at 495 nm and 520 nm, respectively, over a time window of 1000 μs. The measurement is repeated 10 times for fluorescein and 10 times for terbium emission with a 2000 μs time window between repeats. TR-FRET measurements are performed on a Biomek Synergy plate. The TR-FRET signal is calculated as the emission-ratio at 520 nm over […].
(§4) Test compound potency (IC50) was estimated by nonlinear regression using the sigmoidal dose-response (variable slope) using Xlfit 4 (IDBS, Guildford, Surrey, UK, model 205). y=(A+((B−A)/(1+((C/x)̂D)))), where y is the normalized TR-TRET ratio measurement for a given concentration of test compound, x is the concentration of test compound, A is the estimated efficacy (% inhibition) at infinite compound dilution, and B is the maximal efficacy (% inhibition). C is the IC50 value and D is the Hill slope coefficient. IC50 estimates were obtained from independent experiment and the logarithmic average was calculated.

LRRK2 WT = target: T2, LRRK2 WT (Homo sapiens, UniProt Q5S007); experiment: LanthaScreen TR-FRET LRRK2 wild-type kinase activity assay; assay type: biochemical; conditions: 1 nM LRRK2 WT kinase (residues 970 to 2527), 1.3 mM ATP, 0.4 μM fluorescein-LRRKtide, 2 hours at 30° C.; logarithmic average
T2 construct: comprises residues 970 to 2527 of the full length human wild-type LRRK2 kinase; purchased Invitrogen (Life Technologies Corporation)
T2 sequence (Q5S007 970-2527): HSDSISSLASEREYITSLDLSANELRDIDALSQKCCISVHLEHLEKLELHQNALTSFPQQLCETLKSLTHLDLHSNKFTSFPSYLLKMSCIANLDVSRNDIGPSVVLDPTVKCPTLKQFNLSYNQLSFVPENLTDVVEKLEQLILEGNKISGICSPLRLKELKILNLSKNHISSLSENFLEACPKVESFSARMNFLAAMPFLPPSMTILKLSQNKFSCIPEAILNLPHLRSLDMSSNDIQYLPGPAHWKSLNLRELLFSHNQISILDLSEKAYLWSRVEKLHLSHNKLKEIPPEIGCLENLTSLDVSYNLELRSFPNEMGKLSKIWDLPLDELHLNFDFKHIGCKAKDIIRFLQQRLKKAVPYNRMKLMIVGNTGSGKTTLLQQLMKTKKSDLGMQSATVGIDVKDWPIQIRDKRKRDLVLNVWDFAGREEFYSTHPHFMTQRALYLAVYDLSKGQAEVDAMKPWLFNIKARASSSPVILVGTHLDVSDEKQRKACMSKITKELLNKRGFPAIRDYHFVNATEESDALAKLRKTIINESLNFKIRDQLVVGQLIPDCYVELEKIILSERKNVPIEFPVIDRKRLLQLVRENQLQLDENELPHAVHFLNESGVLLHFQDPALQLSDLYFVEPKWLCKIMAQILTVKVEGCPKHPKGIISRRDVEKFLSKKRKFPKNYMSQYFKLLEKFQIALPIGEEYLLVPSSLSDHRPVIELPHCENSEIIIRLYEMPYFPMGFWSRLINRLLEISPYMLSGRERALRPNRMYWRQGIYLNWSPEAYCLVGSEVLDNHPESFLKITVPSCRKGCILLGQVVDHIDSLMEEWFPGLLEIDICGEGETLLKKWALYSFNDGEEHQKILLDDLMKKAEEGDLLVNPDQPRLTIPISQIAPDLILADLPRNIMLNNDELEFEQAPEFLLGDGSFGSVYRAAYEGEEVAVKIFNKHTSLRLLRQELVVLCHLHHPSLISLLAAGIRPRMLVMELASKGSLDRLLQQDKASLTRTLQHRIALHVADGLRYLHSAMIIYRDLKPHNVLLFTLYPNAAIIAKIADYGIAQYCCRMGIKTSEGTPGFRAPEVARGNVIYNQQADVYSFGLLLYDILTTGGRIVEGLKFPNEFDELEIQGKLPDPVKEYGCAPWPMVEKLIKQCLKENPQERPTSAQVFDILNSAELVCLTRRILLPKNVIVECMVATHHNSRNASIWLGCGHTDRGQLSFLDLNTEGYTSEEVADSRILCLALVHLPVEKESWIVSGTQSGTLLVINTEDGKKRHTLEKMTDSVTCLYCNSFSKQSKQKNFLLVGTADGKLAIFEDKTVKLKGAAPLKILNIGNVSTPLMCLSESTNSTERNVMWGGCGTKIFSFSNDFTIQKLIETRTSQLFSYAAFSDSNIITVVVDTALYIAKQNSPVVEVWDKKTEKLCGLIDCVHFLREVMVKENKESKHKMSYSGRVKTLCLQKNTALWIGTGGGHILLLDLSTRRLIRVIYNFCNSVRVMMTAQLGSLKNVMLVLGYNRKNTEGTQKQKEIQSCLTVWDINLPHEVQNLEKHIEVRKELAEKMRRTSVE
Description: as §1, §2, §3, §4

T1 sequence (Q5S007 970-2527 G2019S): as the sequence (Q5S007 970-2527) above, with G1050S counted along it

Row | SMILES | IC50 (LRRK2 G2019S) [nM] | IC50 (LRRK2 WT) [nM]
1 | Cc1cccc(-c2ccnc3[nH]cc(C#N)c23)c1 [Example 2, 4-(3-Methylphenyl)-1H-pyrrolo[2,3-b]pyridine-3-carbonitrile] | 195 | 170
2 | N#Cc1c[nH]c2nccc(-c3ccsc3)c12 [Example 4, 4-(Thiophen-3-yl)-1H-pyrrolo[2,3-b]pyridine-3-carbonitrile] | 851 | 1280
3 | N#Cc1c[nH]c2nccc(-c3ccc(CN4CCOCC4)cc3)c12 [Example 5, 4-[4-(Morpholin-4-ylmethyl)phenyl]-1H-pyrrolo[2,3-b]pyridine-3-carbonitrile] | 1310 | 5440
4 | N#Cc1c[nH]c2nccc(-c3ccn(CN4CCOCC4)c3)c12 [Example 6, 4-[1-(Morpholin-4-ylmethyl)pyrrol-3-yl]-1H-pyrrolo[2,3-b]pyridine-3-carbonitrile] | 650 | 3870
5 | Cc1cccc(-c2cc(Nc3ccn(C)n3)nc3[nH]cc(C#N)c23)c1 [Example 14, 4-(3-Methylphenyl)-6-[(1-methylpyrazol-3-yl)amino]-1H-pyrrolo[2,3-b]pyridine-3-carbonitrile] | 2 | 1
6 | N#Cc1c[nH]c2nc(Nc3ccccn3)cc(-c3ccccc3)c12 [Example 17, 4-Phenyl-6-(pyridin-2-ylamino)-1H-pyrrolo[2,3-b]pyridine-3-carbonitrile] | 527 | 340
7 | Cc1cccc(-c2cc(Nc3nn(C)cc3C)nc3[nH]cc(C#N)c23)n1 [Example 20, 6-[(1,4-Dimethyl-1H-pyrazol-3-yl)amino]-4-(6-methylpyridin-2-yl)-1H-pyrrolo[2,3-b]pyridine-3-carbonitrile] | 50 | 36
8 | Cc1cccc(-c2cc(Nc3nn(C)cc3C(F)(F)F)nc3[nH]cc(C#N)c23)n1 [Example 21, 6-{[1-Methyl-4-(trifluoromethyl)-1H-pyrazol-3-yl]amino}-4-(6-methylpyridin-2-yl)-1H-pyrrolo[2,3-b]pyridine-3-carbonitrile] | 575 | 393
9 | Cc1cncc(-c2cc(Nc3ccn(C)n3)nc3[nH]cc(C#N)c23)c1 [Example 22, 6-[(1-Methyl-1H-pyrazol-3-yl)amino]-4-(5-methylpyridin-3-yl)-1H-pyrrolo[2,3-b]pyridine-3-carbonitrile] | 37 | 27
10 | Cc1cc(-c2cc(Nc3nn(C)cc3C)nc3[nH]cc(C#N)c23)ccn1 [Example 23, 6-[(1,4-Dimethyl-1H-pyrazol-3-yl)amino]-4-(2-methylpyridin-4-yl)-1H-pyrrolo[2,3-b]pyridine-3-carbonitrile] | 108 | 215

Now from value to molecule:

Row | IC50 (LRRK2 G2019S) [nM] | IC50 (LRRK2 WT) [nM] | SMILES
11 | 201 | 247 | COc1cccc(-c2ccnc3[nH]cc(C#N)c23)c1 [Example 1, 4-(3-Methoxyphenyl)-1H-pyrrolo[2,3-b]pyridine-3-carbonitrile]
12 | 252 | 266 | CCc1cccc(-c2ccnc3[nH]cc(C#N)c23)c1 [Example 3, 4-(3-Ethylphenyl)-1H-pyrrolo[2,3-b]pyridine-3-carbonitrile]
13 | 78 | 620 | Cc1cc(-c2ccnc3[nH]cc(C#N)c23)ccc1CN1CCOCC1 [Example 7, 4-[3-Methyl-4-(morpholin-4-ylmethyl)phenyl]-1H-pyrrolo[2,3-b]pyridine-3-carbonitrile]
14 | 288 | 549 | Cc1cc(-c2ccnc3[nH]cc(C#N)c23)ccc1CN(C)C [Example 8, 4-{4-[(Dimethylamino)methyl]-3-methylphenyl}-1H-pyrrolo[2,3-b]pyridine-3-carbonitrile]
15 | 26 | 149 | CCc1cc(-c2ccnc3[nH]cc(C#N)c23)ccc1CN1CCOCC1 [Example 9, 4-[3-Ethyl-4-(morpholin-4-ylmethyl)phenyl]-1H-pyrrolo[2,3-b]pyridine-3-carbonitrile]
16 | 154 | 919 | COc1cc(-c2ccnc3[nH]cc(C#N)c23)ccc1CN1CCOCC1 [Example 10, 4-[3-Methoxy-4-(morpholin-4-ylmethyl)phenyl]-1H-pyrrolo[2,3-b]pyridine-3-carbonitrile]
17 | 240 | 216 | N#Cc1c[nH]c2nc(N)cc(-c3ccccc3)c12 [Example 11, 6-Amino-4-phenyl-1H-pyrrolo[2,3-b]pyridine-3-carbonitrile]
18 | 17 | 15 | Cc1cccc(-c2cc(N)nc3[nH]cc(C#N)c23)c1 [Example 12, 6-Amino-4-(3-methylphenyl)-1H-pyrrolo[2,3-b]pyridine-3-carbonitrile]
19 | 58 | 48 | Cn1ccc(Nc2cc(-c3ccccc3)c3c(C#N)c[nH]c3n2)n1 [Example 13, 6-[(1-Methylpyrazol-3-yl)amino]-4-phenyl-1H-pyrrolo[2,3-b]pyridine-3-carbonitrile]
20 | 1 | 4 | Cc1cc(-c2cc(Nc3ccn(C)n3)nc3[nH]cc(C#N)c23)ccc1CN1CCOCC1 [Example 15, 4-[3-Methyl-4-(morpholin-4-ylmethyl)phenyl]-6-[(1-methylpyrazol-3-yl)amino]-1H-pyrrolo[2,3-b]pyridine-3-carbonitrile]
21 | 164 | 97 | Cn1cc(Nc2cc(-c3ccccc3)c3c(C#N)c[nH]c3n2)cn1 [Example 16, 6-[(1-Methylpyrazol-4-yl)amino]-4-phenyl-1H-pyrrolo[2,3-b]pyridine-3-carbonitrile]
22 | 509 | 358 | Cc1cncc(-c2cc(Nc3nn(C)cc3C(F)(F)F)nc3[nH]cc(C#N)c23)c1 [Example 18, 6-{[1-Methyl-4-(trifluoromethyl)-1H-pyrazol-3-yl]amino}-4-(5-methylpyridin-3-yl)-1H-pyrrolo[2,3-b]pyridine-3-carbonitrile]
23 | 215 | 145 | Cc1ccnc(-c2cc(Nc3nn(C)cc3Cl)nc3[nH]cc(C#N)c23)c1 [Example 19, 6-[(4-Chloro-1-methyl-1H-pyrazol-3-yl)amino]-4-(4-methylpyridin-2-yl)-1H-pyrrolo[2,3-b]pyridine-3-carbonitrile]

Source: patent US20140315901A1, “Arylpyrrolopyridine derived compounds as LRRK2 inhibitors” (H. Lundbeck A/S, priority 2013, published 2014)
